Like-named read-outs stand apart in the source and are kept apart here.
Tests used:
[1] = male, Sprague-Dawley, rat, in vivo, 150 mg/kg
Procedure: Twenty-six male Sprague-Dawley rats weighing approximately 200 to 300 g were used for the study. The jugular vein of six animals were cannulated and the rest of the animals were used without any further preparation.
Dosing was conducted on two occasions. […] The drug was prepared in a suspension formulation in accordance with the present invention. The blood samples (approximately 0.5 mL/sample) were collected from each animal at predose, 15, 30 minutes, 1, 2, 4 and 6 hours postdose into microtainer tubes containing lithium heparin as an anticoagulant. Replacement blood was infused into each animal following each blood draw. […] The drug was prepared in a solution formulation. […] Blood samples were collected from each animal via the orbital sinus at predose, 2, 15, 30 minutes, 1, 2, 4 and 6 hours postdose. Each animal was bled twice. The blood was centrifuged immediately and the resulting plasma in tubes was flash frozen in liquid nitrogen and stored at approximately −70° C. until analysis.
L-Methinione can also be detected under the same HPLC conditions.
Descriptive pharmacokinetic parameters were determined by standard model independent methods (Gibaldi, M. and Perrier, D. Pharmacokinetics, Second Edition, Marcel Dekker, Inc., New York, 1982) based on the mean plasma concentration-time data. The plasma concentrations were rounded to one decimal place before the calculation. Plasma samples with concentrations below the quantifiable limit (BQL) were assigned values of zero for the calculation of mean plasma concentration.
The mean plasma concentration-time profiles are depicted in FIG. 2.

[2] = test system: oxidative stress-induced ototoxicity and nephrotoxicity; details: in vivo; cited from earlier work
[3] = cited from earlier work

Question: With CSCC[C@H](N)C(=O)O [L-Methionine, L-methionine] as the compound, how does the “AUC(0-inf) of L-Methionine” value ([1]; iv) read?
Answer: The value was 326.0 µg·h/mL.

Question: What about the “Cmax of L-Methionine” value ([1]; iv) of the same compound?
Answer: The value was 161700 ng/mL.

Question: What about the “T1/2 (half-life) of L-Methionine” value ([1]; iv) of the same compound?
Answer: The value was 1.9 h.

Question: And the “Tmax of L-Methionine” value ([1]; iv)?
Answer: The value was 0.50 h.

Question: What about the “Mean Plasma Concentrations of L-Methionine” value (shortened to “Mean Plasma Concentrations”) ([1]; iv, 0 h) of the same compound?
Answer: The value was 132.6 ng/mL.

Question: What about the “Mean Plasma Concentrations” value ([1]; iv, 0.03 h) of the same compound?
Answer: The value was 132.6 ng/mL.

Question: What about the “Mean Plasma Concentrations” value ([1]; iv, 0.25 h) of the same compound?
Answer: The value was 146.5 ng/mL.

Question: And the “Mean Plasma Concentrations” value ([1]; iv, 0.5 h)?
Answer: Its value is 161.7 ng/mL.

Question: What about the “Mean Plasma Concentrations” value ([1]; iv, 1 h) of the same compound?
Answer: The value was 76.1 ng/mL.

Question: What about the “Mean Plasma Concentrations” value ([1]; iv, 2 h) of the same compound?
Answer: Its value is 45.4 ng/mL.

Question: And the “Mean Plasma Concentrations” value ([1]; iv, 4 h)?
Answer: The value was 23.2 ng/mL.

Question: And the “Mean Plasma Concentrations” value ([1]; iv, 6 h)?
Answer: Its value is 10.7 ng/mL.

Question: And the “AUC(0-inf) of L-Methionine” value ([1]; po)?
Answer: Its value is 450.2 µg·h/mL.

Question: And the “Cmax of L-Methionine” value ([1]; po)?
Answer: The value was 47200 ng/mL.

Question: What about the “T1/2 (half-life) of L-Methionine” value ([1]; po) of the same compound?
Answer: The value was 9.9 h.

Question: And the “Tmax of L-Methionine” value ([1]; po)?
Answer: Its value is 2.00 h.

Question: What about the “Mean Plasma Concentrations” value ([1]; po, 0 h) of the same compound?
Answer: The value was 7.8 ng/mL.

Question: And the “Mean Plasma Concentrations” value ([1]; po, 0.5 h)?
Answer: Its value is 33.1 ng/mL.

Question: What about the “Mean Plasma Concentrations” value ([1]; po, 1 h) of the same compound?
Answer: The value was 32.0 ng/mL.

Question: And the “Mean Plasma Concentrations” value ([1]; po, 2 h)?
Answer: Its value is 47.2 ng/mL.

Question: What about the “Mean Plasma Concentrations” value ([1]; po, 4 h) of the same compound?
Answer: Its value is 22.2 ng/mL.

Question: And the “Mean Plasma Concentrations” value ([1]; po, 6 h)?
Answer: The value was 18.8 ng/mL.

Question: What about the “Mean Plasma Concentrations” value ([1]; po, 12 h) of the same compound?
Answer: The value was 12.6 ng/mL.

Question: What about the “effect on oxidative stress-induced ototoxicity and nephrotoxicity associated with cisplatin” value [2] of the same compound?
Answer: The value was “effectively prevent”.

Question: And the “dosage reported safe for chronic administration” value ([3]; adult)?
Answer: The value was 20 g/day.

Question: And the “side-effects in human studies” value ([3]; most human studies)?
Answer: The value was “no side-effects”.
